Measured values reported in US20040235955A1, “Remedies for pruritus” (priority 2001, published 2004).

Columns and labels:
[1] = system: pruritus induced by serotonin and PGE2; assay: inhibitory effect against pruritus induced by serotonin and PGE2 (scratching count); assay type: in vivo; conditions: male ICR mice, scratching counted for 30 minutes, vs control
Protocol: The inhibitory effect against pruritus induced by serotonin and PGE2.
The back of male ICR mice (Charles River Japan Inc., 5 week-old) were sheared by hair clipper. 0.5% MC or the above test compound (100 mg/5 ml/kg or 300 mg/5 ml/kg) was administered orally. After 15 minutes or 1hour, serotonin (3 μg) or mixed solution of serotonin (3 μg) and PGE2 (1nmol) was injected intradermally (20 μl) into the. back of mouse. Scratching of the injected site or the perimeter by the behind paws of mouse was characterized as itch. The scratching was counted for 30 minutes from the injection.
0.5% MC [administration at 15 minutes before the induction]/serotonin (n=10) 0.5% MC [administration at 15 minutes before the induction]/serotonin+PGE2 (n=10) compound (1) [administration at 15 minutes before the induction]/serotonin+PGE2 (n=10) compound (2) [administration at 15 minutes before the
0.5% MC [administration at 1hour before the induction]/serotonin (n=10) 0.5% MC [administration at 1hour before the induction]/serotonin+PGE2 (n=10) compound (3) [administration at 1hour before the induction]/serotonin+PGE2 (n=10)

[2] = system: model of allergic dermatitis; assay: inhibitory effect against pruritus in a model of allergic dermatitis (DNFB hapten, scratching count); assay type: in vivo; conditions: male BALB/c mice; 0.15% DNFB weekly; 100 mg/5 ml/kg orally; scratching from 3 to 5 hours and from 24 to 26 hours after fifth application of hapten; vs control; FIG. 3
Protocol: The inhibitory effect against pruritus in a model of allergic dermatitis. The back of male BALB/c mice (Charles River Japan Inc., 6 week-old) were sheared by hair clipper. 0.15% dinitrofluorobenzene (DNFB) dissolved in mixed solution of acetone and olive oil as hapten was administered 50 μl by micro pipette in the back once a week. After forth applications, the scratching was measured from 3 to 5 hours and from 24 to 26 hours and mice were divided to each group referring the scratch data. 0.5% MC or the test compound (100 mg/5 ml/kg) was administered orally forth every 30 minutes from 30 minutes before 3 and 24 hours, respectively after fifth application of hapten. The scratching was videotaped from 3 to 5 hours and from 24 to 26 hours, respectively, after fifth application of hapten. The scratching was counted and estimated.

[3] = 100 mg/5 ml/kg orally 15 minutes before intradermal serotonin (3 μg) + PGE2 (1 nmol), FIG. 1

| Structure (SMILES) | number of scratching in serotonin and PGE2-induced pruritus [1, 3] | further results |
| --- | --- | --- |
| O=C([O-])CCc1ccc(Cn2cccn2)cc1OCCc1ccc2ccccc2c1.[Na+] [Compound (1), sodium 3-(2-(2-(naphthalen-2-yl)ethoxy)-4-(pyrazol-1-ylmethyl)phenyl)propanoate] | inhibited significantly against control |  |
| CC(C)CC(C(=O)Nc1cc(C#N)ccc1Cc1ccccc1C(=O)[O-])c1cccc2ccccc12.[Na+] (stereo not shown) [Compound (2), sodium 2-[4-cyano-2-[4-methyl-2-(1-naphthyl)pentanoylamino]phenylmethyl]benzoate] | inhibited significantly against control |  |
| COc1ccc(Br)cc1S(=O)(=O)NC(=O)/C=C/c1ccccc1Cc1ccc2ccccc2c1 [Compound (3), (2E)-N-(5-bromo-2-methoxyphenylsulfonyl)-3-(2-(naphthalen-2-ylmethyl)phenyl) -2-propenamide] |  | number of scratching in serotonin and PGE2-induced pruritus ([1]; 300 mg/5 ml/kg orally 1 hour before intradermal serotonin (3 μg) + PGE2 (1 nmol), FIG. 2): inhibited significantly against control |
| O=C(O)CCc1ccc(Cn2cccn2)cc1OCCc1ccc2ccccc2c1 [Compound (4), 3-(2-(2-(naphthalen-2-yl)ethoxy)-4-(pyrazol-1-ylmethyl)phenyl)propanoic acid] |  | number of scratching in allergic dermatitis model [2]: inhibited significantly against control |
